Measurements published in ChEMBL document CHEMBL1201862, “PubChem BioAssay data set” (2004).
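A five-concentration, 48-hour dose response in 96-well plates underlies each endpoint, interpolated linearly between surrounding concentrations. Here, GI50 denotes the concentration required for 50% inhibition of growth.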 Active and inactive are the calls of the source. Cut-off read from the data, not from the text of the source: active = GI50 up to about 1.1 µM and inactive = higher.

How the values were obtained:
Test in all cases: growth of human tumour cells (NCI), 48 h
BT-549 = test system: BT-549
M14 = test system: M14
OVCAR-8 = test system: OVCAR-8
U-251 = test system: U-251
T47D = test system: T47D
MDA-MB-435 = test system: MDA-MB-435
HL-60 = test system: HL-60
786-0 = test system: 786-0
HT-29 = test system: HT-29
UACC-257 = test system: UACC-257
NCI-H460 = test system: NCI-H460
MDA-N = test system: MDA-N
HOP-92 = test system: HOP-92
UACC-62 = test system: UACC-62
SF-295 = test system: SF-295
COLO 205 = test system: COLO 205
SK-MEL-28 = test system: SK-MEL-28
HCT-15 = test system: HCT-15
MDA-MB-231 = test system: MDA-MB-231
SR = test system: SR

| SMILES | GI50 (BT-549) | GI50 (M14) | GI50 (OVCAR-8) | GI50 (U-251) | GI50 (T47D) | GI50 (MDA-MB-435) | GI50 (HL-60) | GI50 (786-0) | GI50 (HT-29) | GI50 (UACC-257) | GI50 (NCI-H460) | GI50 (MDA-N) | GI50 (HOP-92) | GI50 (UACC-62) | GI50 (SF-295) | GI50 (COLO 205) | GI50 (SK-MEL-28) | GI50 (HCT-15) [µM] | GI50 (MDA-MB-231) | GI50 (SR) |
| --- | --- | --- | --- | --- | --- | --- | --- | --- | --- | --- | --- | --- | --- | --- | --- | --- | --- | --- | --- | --- |
| O=C(C1OC1c1ccc([N+](=O)[O-])cc1)C12CC3CC(CC(C3)C1)C2 (stereo unspecified) | 23.8 µM (inactive) | 15.2 µM (inactive) | 16.6 µM (inactive) | 11.9 µM (inactive) | 16.6 µM (inactive) | 12.3 µM (inactive) | 3.46 µM (inactive) | 9.98 µM (inactive) | 21.4 µM (inactive) | 14.7 µM (inactive) | 13.6 µM (inactive) | 11.6 µM (inactive) | 20.3 µM (inactive) | 12.1 µM (inactive) | 12.3 µM (inactive) | 19.2 µM (inactive) | 17.6 µM (inactive) | 13.2 | 16.7 µM (inactive) |  |
| C1CN(c2nc3c(nnc4nc(N5CCOCC5)sc43)s2)CCO1 | > 100 µM (inactive) | > 100 µM (inactive) | > 100 µM (inactive) | 60.8 µM (inactive) | 23.7 µM (inactive) | > 100 µM (inactive) | > 100 µM (inactive) | > 100 µM (inactive) | > 100 µM (inactive) | > 100 µM (inactive) |  | > 100 µM (inactive) | 29.4 µM (inactive) | > 100 µM (inactive) | > 100 µM (inactive) | > 100 µM (inactive) | > 100 µM (inactive) | > 100 | > 100 µM (inactive) |  |
| NCCN/C(=N\c1ccccc1)Nc1ccccc1 | > 100 µM (inactive) | > 100 µM (inactive) | > 100 µM (inactive) | > 100 µM (inactive) | > 10 µM (inactive) | > 100 µM (inactive) | > 100 µM (inactive) | > 100 µM (inactive) | > 100 µM (inactive) | > 100 µM (inactive) | > 100 µM (inactive) | > 100 µM (inactive) |  | > 100 µM (inactive) | > 100 µM (inactive) | > 100 µM (inactive) | > 100 µM (inactive) | > 100 | > 100 µM (inactive) | > 100 µM (inactive) |
| OC/C=C/[C@H](OCc1ccccc1)[C@H](/C=C/CO)OCc1ccccc1 | 59.2 µM (inactive) | 76.6 µM (inactive) | 46.2 µM (inactive) | 24.5 µM (inactive) | 23.7 µM (inactive) | 40.1 µM (inactive) |  | 44.9 µM (inactive) | 24.3 µM (inactive) | 75.2 µM (inactive) | 57.8 µM (inactive) | 36 µM (inactive) | 45.4 µM (inactive) | 80 µM (inactive) | 32.5 µM (inactive) | 59.3 µM (inactive) | 35.8 µM (inactive) | 34.8 | 50.4 µM (inactive) | 18.8 µM (inactive) |
| C=C(O)c1ccccc1C#Cc1ccccc1C(=O)OC | > 10 µM (inactive) | > 10 µM (inactive) | > 10 µM (inactive) | > 10 µM (inactive) | > 10 µM (inactive) | > 10 µM (inactive) | > 10 µM (inactive) | > 10 µM (inactive) | > 10 µM (inactive) | > 10 µM (inactive) | > 10 µM (inactive) | > 10 µM (inactive) |  | > 10 µM (inactive) | > 10 µM (inactive) | > 10 µM (inactive) | > 10 µM (inactive) | > 10 | > 10 µM (inactive) | > 10 µM (inactive) |
| CC1CC(C)[C@H](O)C([C@H](O)CC2CC(=O)N(C)C(=O)C2)C1 (stereo partly specified) | > 100 µM (inactive) | > 100 µM (inactive) | > 100 µM (inactive) | > 100 µM (inactive) | > 100 µM (inactive) | > 100 µM (inactive) | > 100 µM (inactive) | > 100 µM (inactive) | > 100 µM (inactive) | > 100 µM (inactive) | > 100 µM (inactive) | > 100 µM (inactive) | 32.3 µM (inactive) | > 100 µM (inactive) | 82.4 µM (inactive) | > 100 µM (inactive) | > 100 µM (inactive) | > 100 | > 100 µM (inactive) |  |
| COc1cc(C2S/C(=C/c3ccccc3)C(=O)N2c2cccc([N+](=O)[O-])c2)cc(OC)c1OC (stereo unspecified) | > 100 µM (inactive) | 72.1 µM (inactive) | > 100 µM (inactive) | 27.5 µM (inactive) | 0.156 µM (active) | 17.5 µM (inactive) |  | 51.4 µM (inactive) | 50.1 µM (inactive) | > 100 µM (inactive) |  | 22.9 µM (inactive) | 62.1 µM (inactive) | 65.9 µM (inactive) | 50.1 µM (inactive) | > 100 µM (inactive) | > 100 µM (inactive) | 71.9 | 51.8 µM (inactive) | 46.6 µM (inactive) |
